{"source": "ChEMBL document CHEMBL1124752", "about": "“Cyclobut-A and cyclobut-G: broad-spectrum antiviral agents with potential utility for the therapy of AIDS” (J Med Chem, 1990)", "key": {"[1]": {"system": "Human alphaherpesvirus 1", "assay": "Number of survivors per number of HSV-1 infected mice treated with 50 mg/kg per day; 0/10", "assay_type": "functional"}, "[2]": {"system": "Human alphaherpesvirus 3", "assay": "In vitro antiviral activity against herpesvirus, VZV, Ellen strain by plaque reduction assay in human foreskin fibroblasts.", "conditions": "Human alphaherpesvirus 3, read-out: ID50"}, "[3]": {"system": "Human alphaherpesvirus 2", "assay": "In vitro antiviral activity against herpesvirus,HSV-2,HEET strain by plaque reduction assay in human foreskin fibroblasts", "assay_type": "functional", "conditions": "read-out: ED50 (the source's name)"}, "[4]": {"system": "Human alphaherpesvirus 2", "assay": "In vitro antiviral activity against herpesvirus, HSV-2, JEN strain by plaque reduction assay in human foreskin fibroblasts", "assay_type": "functional", "conditions": "read-out: ED50 (the source's name)"}, "[5]": {"system": "Human alphaherpesvirus 3", "assay": "In vitro antiviral activity tested against herpesvirus, VZV, Ellen strain by plaque reduction assay in human foreskin fibroblasts.", "conditions": "Human alphaherpesvirus 3, read-out: ED50"}, "[6]": {"system": "Human alphaherpesvirus 3", "assay": "In vitro antiviral activity tested against herpesvirus, VZV, OKA strain by plaque reduction assay in human foreskin fibroblasts.", "conditions": "Human alphaherpesvirus 3, read-out: ED50"}, "[7]": {"assay": "In vitro antiviral activity against herpesvirus, HSV-HEET strain by plaque reduction assay in human foreskin fibroblasts.", "assay_type": "functional, herpes simplex virus", "conditions": "Human alphaherpesvirus 1; read-out: ID50 (the source's name)"}, "[8]": {"system": "Human alphaherpesvirus 1", "assay": "Tested for mean day to death of nonsurvivors against HSV-1 infection in mice at 12.5 mg/kg per day", "assay_type": "functional"}, "[9]": {"system": "Human alphaherpesvirus 2", "assay": "In vitro antiviral activity against herpesvirus, HSV-2, MS strain by plaque reduction assay in human foreskin fibroblasts", "assay_type": "functional", "conditions": "read-out: ED50 (the source's name)"}, "[10]": {"system": "Human alphaherpesvirus 1", "assay": "Number of survivors per number of HSV-1 infected mice treated with 12.5 mg/kg per day; 2/10", "assay_type": "functional"}, "[11]": {"system": "Human alphaherpesvirus 1", "assay": "Number of survivors per number of HSV-1 infected mice treated with 200 mg/kg per day; 4/10", "assay_type": "functional"}, "[12]": {"system": "Human alphaherpesvirus 2", "assay": "In vitro antiviral activity against herpesvirus, HSV-2, X-79 strain by plaque reduction assay in human foreskin fibroblasts.", "assay_type": "functional", "conditions": "read-out: ID50 (the source's name)"}, "[13]": {"system": "Human alphaherpesvirus 3", "assay": "In vitro antiviral activity against herpesvirus, VZV, OKA strain by plaque reduction assay in human foreskin fibroblasts.", "conditions": "Human alphaherpesvirus 3, read-out: ID50"}, "[14]": {"system": "Raji", "assay": "Tested for the inhibition of diffuse early antigen production assayed by immunofluorescent monoclonal antibody.", "assay_type": "functional", "conditions": "Homo sapiens"}, "[15]": {"system": "Human alphaherpesvirus 1", "assay": "Tested for mean day to death of nonsurvivors against HSV-1 infection in mice at 50 mg/kg per day", "assay_type": "functional"}, "[16]": {"system": "Human alphaherpesvirus 1", "assay": "In vitro antiviral activity against herpesvirus, HSV-1, E-377 strain by plaque reduction assay in human foreskin fibroblasts.", "assay_type": "functional", "conditions": "read-out: ID50 (the source's name)"}, "[17]": {"system": "Human alphaherpesvirus 2", "assay": "In vitro antiviral activity against herpesvirus,HSV-2,X-79 strain by plaque reduction assay in human foreskin fibroblasts", "assay_type": "functional", "conditions": "read-out: ED50 (the source's name)"}, "[18]": {"system": "Human alphaherpesvirus 1", "assay": "In vitro antiviral activity against herpesvirus, HSV-1,E-377 strain by plaque reduction assay in human foreskin fibroblasts", "assay_type": "functional", "conditions": "read-out: ED50 (the source's name)"}, "[19]": {"organism": "Homo sapiens", "assay": "The drug concentration was determined to reduce proliferation of human foreskin fibroblasts to 50% of untreated controls in proliferation assay.", "assay_type": "functional", "conditions": "read-out: ID50 (the source's name)"}, "[20]": {"assay": "In vitro antiviral activity against herpesvirus, HSV-JEN strain by plaque reduction assay in human foreskin fibroblasts.", "assay_type": "functional, herpes simplex virus", "conditions": "Human alphaherpesvirus 1; read-out: ID50 (the source's name)"}, "[21]": {"system": "Human alphaherpesvirus 2", "assay": "In vitro antiviral activity against herpesvirus, HSV-2, MS strain by plaque reduction assay in human foreskin fibroblasts.", "assay_type": "functional", "conditions": "read-out: ID50 (the source's name)"}, "[22]": {"system": "Human alphaherpesvirus 1", "assay": "Tested for mean day to death of nonsurvivors against HSV-1 infection in mice at 200 mg/kg per day", "assay_type": "functional"}}, "data": [{"smiles": "Nc1nc2c(ncn2COCCO)c(=O)[nH]1", "note": "[ACYCLOVIR]", "values": [{"measurement": "Survivors / treated", "setting": "[1]", "value": 0}, {"measurement": "IC50", "setting": "[2]", "value": "> 100", "unit": "µg/mL"}, {"measurement": "EC50", "setting": "[3]", "value": 0.06, "unit": "µg/mL"}, {"measurement": "EC50", "setting": "[4]", "value": 0.07, "unit": "µg/mL"}, {"measurement": "EC50", "setting": "[5]", "value": 2.3, "unit": "µg/mL"}, {"measurement": "EC50", "setting": "[6]", "value": 3.7, "unit": "µg/mL"}, {"measurement": "IC50", "setting": "[7]", "value": "> 100", "unit": "µg/mL"}, {"measurement": "MDD", "setting": "[8]", "value": 7.8}, {"measurement": "EC50", "setting": "[9]", "value": 0.09, "unit": "µg/mL"}, {"measurement": "Survivors / treated", "setting": "[10]", "value": 2}, {"measurement": "Survivors / treated", "setting": "[11]", "value": 4}, {"measurement": "IC50", "setting": "[12]", "value": "> 100", "unit": "µg/mL"}, {"measurement": "IC50", "setting": "[13]", "value": "> 100", "unit": "µg/mL"}, {"measurement": "EC50", "setting": "[14]; read-out: ED50 (the source's name)", "value": 3.8, "unit": "µg/mL"}, {"measurement": "IC50", "setting": "[14]; read-out: ID50 (the source's name)", "value": "> 100", "unit": "µg/mL"}, {"measurement": "MDD", "setting": "[15]", "value": 8}, {"measurement": "IC50", "setting": "[16]", "value": "> 100", "unit": "µg/mL"}, {"measurement": "EC50", "setting": "[17]", "value": 0.1, "unit": "µg/mL"}, {"measurement": "EC50", "setting": "[18]", "value": 0.08, "unit": "µg/mL"}, {"measurement": "IC50", "setting": "[19]", "value": 165, "unit": "µg/mL"}, {"measurement": "IC50", "setting": "[20]", "value": "> 100", "unit": "µg/mL"}, {"measurement": "IC50", "setting": "[21]", "value": "> 100", "unit": "µg/mL"}, {"measurement": "MDD", "setting": "[22]", "value": 12.3}]}]}
